PubChem BioAssay (NCI)
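Test compounds were applied to cells in 96-well plates for 48 hours at 5 doses. TGI is the concentration that stops growth completely.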

Assays:
Assay in all cases: growth of human tumour cells (NCI), 48 h
[1] = test system: M14 melanoma
[2] = test system: SF-268 CNS
[3] = test system: CCRF-CEM leukemia
[4] = test system: HOP-92 NSCLC
[5] = test system: 786-0 renal
[6] = test system: MOLT-4 leukemia
[7] = test system: HCT-15 colon
[8] = test system: KM12 colon
[9] = test system: MCF7 breast
[10] = test system: NCI/ADR-RES ovarian
[11] = test system: U251 CNS
[12] = test system: SF-539 CNS
[13] = test system: OVCAR-8 ovarian
[14] = test system: HT29 colon
[15] = test system: UACC-257 melanoma
[16] = test system: HOP-62 NSCLC
[17] = test system: HCC-2998 colon
[18] = test system: OVCAR-5 ovarian
[19] = test system: SR leukemia
[20] = test system: NCI-H23 lung
[21] = test system: HCT-116 colon
[22] = test system: NCI-H226 lung
[23] = test system: SK-OV-3 ovarian
[24] = test system: NCI-H522 lung
[25] = test system: A498 renal
[26] = test system: RXF 393 renal
[27] = test system: MDA-N
[28] = test system: OVCAR-3 ovarian
[29] = test system: K-562 leukemia
[30] = test system: SK-MEL-28 melanoma
[31] = test system: MDA-MB-231 breast
[32] = test system: MDA-MB-435
[33] = test system: TK-10 renal
[34] = test system: OVCAR-4 ovarian
[35] = test system: LOX IMVI melanoma
[36] = test system: NCI-H460 lung
[37] = test system: MALME-3M melanoma
[38] = test system: CAKI-1 renal
[39] = test system: DU-145 prostate
[40] = test system: SN12C renal
[41] = test system: T-47D breast
[42] = test system: EKVX NSCLC
[43] = test system: UACC-62 melanoma
[44] = test system: A549 NSCLC
[45] = test system: HS 578T breast
[46] = test system: SNB-75 CNS
[47] = test system: SW-620 colon
[48] = test system: IGROV1 ovarian
[49] = test system: SNB-19 CNS
[50] = test system: HL-60(TB) leukemia
[51] = test system: SF-295 CNS
[52] = test system: COLO 205 colon
[53] = test system: ACHN renal
[54] = test system: UO-31 renal
[55] = test system: PC-3 prostate
[56] = test system: SK-MEL-5 melanoma
[57] = test system: SK-MEL-2 melanoma
[58] = test system: RPMI-8226 leukemia

CCOC(=O)c1c(SC(=O)C(C)(C)Oc2ccc(Cl)cc2)n(-c2ccccc2)c(=S)n(-c2ccccc2)c1=O
TGI [1]: > 100 µM | TGI [2]: 43.9 µM | TGI [3]: 75.5 µM | TGI [4]: > 100 µM | TGI [5]: > 100 µM | TGI [6]: 58 µM | TGI [7]: > 100 µM | TGI [8]: 50 µM | TGI [9]: 57.2 µM | TGI [10]: > 100 µM | TGI [11]: 41 µM | TGI [12]: 41.7 µM | TGI [13]: 42.1 µM | TGI [14]: 66.4 µM | TGI [15]: > 100 µM | TGI [16]: 60.1 µM | TGI [17]: > 100 µM | TGI [18]: > 100 µM | TGI [19]: 52.3 µM | TGI [20]: > 100 µM | TGI [21]: 49 µM | TGI [22]: > 100 µM | TGI [23]: > 100 µM | TGI [24]: 84.3 µM | TGI [25]: 98.9 µM | TGI [26]: 73.4 µM | TGI [27]: > 100 µM | TGI [28]: > 100 µM | TGI [29]: > 100 µM | TGI [30]: > 100 µM | TGI [31]: 47.9 µM | TGI [32]: > 100 µM | TGI [33]: > 100 µM | TGI [34]: > 100 µM | TGI [35]: > 100 µM | TGI [36]: 52.8 µM | TGI [37]: 72.7 µM | TGI [38]: > 100 µM | TGI [39]: > 100 µM | TGI [40]: 67.8 µM | TGI [41]: > 100 µM | TGI [42]: > 100 µM | TGI [43]: > 100 µM | TGI [44]: 65.3 µM | TGI [45]: > 100 µM | TGI [46]: > 100 µM | TGI [47]: 55.2 µM | TGI [48]: 36 µM | TGI [49]: > 100 µM | TGI [50]: > 100 µM | TGI [51]: > 100 µM | TGI [52]: 39.3 µM | TGI [53]: 44.4 µM

N=C1N(/N=C/c2ccccn2)C(=Nc2ccccc2)C(=S)N1c1ccccc1
TGI [2]: 18.3 µM | TGI [3]: > 100 µM | TGI [4]: 22.9 µM | TGI [54]: 16 µM | TGI [5]: 13.7 µM | TGI [6]: > 100 µM | TGI [7]: 12.2 µM | TGI [8]: 17.3 µM | TGI [10]: 10.6 µM | TGI [11]: 20.7 µM | TGI [12]: 15.8 µM | TGI [13]: 13.8 µM | TGI [14]: 13.6 µM | TGI [15]: 21.3 µM | TGI [16]: 22 µM | TGI [17]: 22 µM | TGI [18]: 17.5 µM | TGI [19]: > 100 µM | TGI [20]: 19.5 µM | TGI [21]: 8.34 µM | TGI [22]: 32.9 µM | TGI [23]: 42.8 µM | TGI [24]: 3.72 µM | TGI [25]: 39.5 µM | TGI [26]: 16.4 µM | TGI [27]: 11.8 µM | TGI [29]: > 100 µM | TGI [55]: 15.8 µM | TGI [30]: 23 µM | TGI [31]: 19.8 µM | TGI [32]: 17.4 µM | TGI [33]: 22.9 µM | TGI [34]: 23.9 µM | TGI [35]: 11.3 µM | TGI [36]: 15.9 µM | TGI [37]: 22.8 µM | TGI [38]: 20 µM | TGI [39]: 13.4 µM | TGI [40]: 17.9 µM | TGI [41]: 21.1 µM | TGI [42]: 15.9 µM | TGI [43]: 4.61 µM | TGI [44]: 23.8 µM | TGI [45]: 29.4 µM | TGI [46]: 42.2 µM | TGI [56]: 16.5 µM | TGI [47]: 16.3 µM | TGI [48]: 18.8 µM | TGI [49]: 31.2 µM | TGI [57]: 12.8 µM | TGI [51]: 19 µM | TGI [58]: > 100 µM | TGI [52]: 5.36 µM | TGI [53]: 7.96 µM
